Laboratory results as given in paper PMC10233710 (ChemMedChem, 2023).
Like-named read-outs stand apart in the source and are kept apart here.

Assays:
HCT-116 cells = assay: MTT cytotoxicity assay, HCT-116; type: cell-based, human; conditions: read-out: GI50 ± SD (μM) HCT-116
recombinant human TDP1 = recombinant human TDP1 (Homo sapiens, UniProt Q9NUW8); assay: TDP1 gel-based inhibition assay; type: biochemical
MCF-7 cells = assay: MTT cytotoxicity assay, MCF-7; type: cell-based, human; conditions: read-out: GI50 ± SD (μM) MCF-7
recombinant TOP1 = molecular target: T1, recombinant TOP1 (Homo sapiens, UniProt P11387); assay: TOP1-mediated DNA cleavage assay; type: biochemical; conditions: TOP1 cleavage inhibitory activity, semiquantitative relative to CPT at 1 μM
T1 sequence (P11387 1-765): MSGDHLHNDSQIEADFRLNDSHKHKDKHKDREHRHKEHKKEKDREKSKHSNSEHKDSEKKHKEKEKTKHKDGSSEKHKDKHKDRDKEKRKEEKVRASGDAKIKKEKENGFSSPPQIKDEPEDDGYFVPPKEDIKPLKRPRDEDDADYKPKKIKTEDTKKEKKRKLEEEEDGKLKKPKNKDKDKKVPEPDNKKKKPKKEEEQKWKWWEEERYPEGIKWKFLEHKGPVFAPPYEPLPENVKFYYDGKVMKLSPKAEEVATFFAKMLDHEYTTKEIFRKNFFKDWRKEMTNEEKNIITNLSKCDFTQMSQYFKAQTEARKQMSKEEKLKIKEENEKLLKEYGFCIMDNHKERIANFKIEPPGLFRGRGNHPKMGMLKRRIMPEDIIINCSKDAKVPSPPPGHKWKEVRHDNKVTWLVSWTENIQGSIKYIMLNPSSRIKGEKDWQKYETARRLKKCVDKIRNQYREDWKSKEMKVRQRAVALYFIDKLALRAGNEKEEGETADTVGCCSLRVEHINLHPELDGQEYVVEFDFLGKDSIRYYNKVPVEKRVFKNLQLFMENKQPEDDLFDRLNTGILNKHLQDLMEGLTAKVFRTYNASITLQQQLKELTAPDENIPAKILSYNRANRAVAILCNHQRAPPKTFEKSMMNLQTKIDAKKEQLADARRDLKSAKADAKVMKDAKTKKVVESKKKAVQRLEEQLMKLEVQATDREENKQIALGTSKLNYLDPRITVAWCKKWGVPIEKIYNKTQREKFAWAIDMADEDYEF

recombinant human TDP1, sequence (Q9NUW8 whole entry): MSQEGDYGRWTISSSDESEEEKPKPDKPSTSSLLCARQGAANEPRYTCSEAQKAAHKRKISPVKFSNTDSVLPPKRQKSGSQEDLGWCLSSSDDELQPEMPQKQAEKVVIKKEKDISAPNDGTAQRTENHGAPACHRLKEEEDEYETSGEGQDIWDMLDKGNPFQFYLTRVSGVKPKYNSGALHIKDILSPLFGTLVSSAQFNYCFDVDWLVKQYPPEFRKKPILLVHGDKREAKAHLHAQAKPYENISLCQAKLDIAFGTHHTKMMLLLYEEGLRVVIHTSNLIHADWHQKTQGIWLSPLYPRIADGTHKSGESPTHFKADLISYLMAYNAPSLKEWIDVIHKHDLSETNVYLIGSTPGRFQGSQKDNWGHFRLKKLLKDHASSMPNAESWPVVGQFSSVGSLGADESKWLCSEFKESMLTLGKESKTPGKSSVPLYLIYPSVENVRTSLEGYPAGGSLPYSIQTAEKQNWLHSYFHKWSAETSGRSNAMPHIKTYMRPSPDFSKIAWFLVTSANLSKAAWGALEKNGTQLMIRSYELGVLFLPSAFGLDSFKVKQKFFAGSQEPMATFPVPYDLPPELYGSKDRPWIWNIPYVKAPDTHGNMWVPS

| IC50 (recombinant human TDP1; read-out: IC50 (μM) for TDP1, gel-based assay, Table 1) [µM] | SMILES | GI50 (HCT-116 cells; MTT assay, 72 h, Table 1) [µM] | GI50 (MCF-7 cells; MTT assay, 72 h, Table 1) [µM] | GI50 (HCT-116 cells; Homo sapiens, HCT-116, 72 h) [µM] | IC50 (recombinant human TDP1) [µM] | GI50 (MCF-7 cells; Homo sapiens, MCF7, 72 h) [µM] | TOP1 Inhibition (recombinant TOP1; Table 1) | TOP1 Inhibition (recombinant TOP1; Table 2) | IC50 (recombinant human TDP1; read-out: IC50 (μM) for TDP1, gel-based assay, Table 2) [µM] |
| --- | --- | --- | --- | --- | --- | --- | --- | --- | --- |
| > 111 | COc1cc2c(=O)n(C)c3c4cc5c(cc4ccc3c2cc1OC)OCO5 [Compound 4, oxynitidine, reference compound] | 75 ± 4.4 | > 100 | – | – | – | – | – | – |
| – | COc1cc2c(=O)n(C)c3c4cc5c(cc4c(OC(C)=O)cc3c2cc1OC)OCO5 [Compound 10, 2,3-Dimethoxy-12-methyl-13-oxo-12,13-dihydro-[1,3]dioxolo[4’,5’:4,5]benzo[1,2-c]phenanthridin-6-yl acetate] | – | – | > 100 | > 111 | > 100 | + (+, between 20% and 50% activity) | – | – |
| – | COc1cc2c(=O)n(C)c3c4cc5c(cc4c(O)cc3c2cc1OC)OCO5 [Compound 11, 6-Hydroxy-2,3-dimethoxy-12-methyl-[1,3]dioxolo[4’,5’:4,5]benzo[1,2-c]phenanthridin-13(12H)-one] | – | – | > 100 | > 111 | > 100 | 0 | – | – |
| – | CNCCOc1cc2c3cc(OC)c(OC)cc3c(=O)n(C)c2c2cc3c(cc12)OCO3 [Compound 12, 2,3-Dimethoxy-12-methyl-6-(2-(methylamino)ethoxy)-[1,3]dioxolo[4’,5’:4,5]benzo[1,2-c]phenanthridin-13(12H)-one] | – | – | 1.3 ± 0.12 | > 111 | 2.2 ± 0.06 | +++ (+++, between 75% and 95% activity) | – | – |
| – | CNCCCOc1cc2c3cc(OC)c(OC)cc3c(=O)n(C)c2c2cc3c(cc12)OCO3 [Compound 13, 2,3-Dimethoxy-12-methyl-6-(3-(methylamino)propoxy)-[1,3]dioxolo[4’,5’:4,5]benzo[1,2-c]phenanthridin-13(12H)-one] | – | – | 12 ± 1.2 | > 111 | 33 ± 5 | + (+, between 20% and 50% activity) | – | – |
| – | COc1cc2c(=O)n(C)c3c4cc5c(cc4c(OCCN(C)C)cc3c2cc1OC)OCO5 [Compound 14, 6-(2-(Dimethylamino)ethoxy)-2,3-dimethoxy-12-methyl-[1,3]dioxolo[4’,5’:4,5]benzo[1,2-c]phenanthridin-13(12H)-one] | – | – | 4.6 ± 0.41 | 37 to 111 | 8.5 ± 0.91 | + (+, between 20% and 50% activity) | – | – |
| – | COc1cc2c(=O)n(C)c3c4cc5c(cc4c(OCCCN(C)C)cc3c2cc1OC)OCO5 [Compound 15, 6-(3-(Dimethylamino)propoxy)-2,3-dimethoxy-12-methyl-[1,3]dioxolo[4’,5’:4,5]benzo[1,2-c]phenanthridin-13(12H)-one] | – | – | 36 ± 1.3 | > 111 | 54 ± 4.9 | + (+, between 20% and 50% activity) | – | – |
| – | COc1cc2c(=O)n(C)c3c4cc5c(cc4c(OCCN4CCCCC4)cc3c2cc1OC)OCO5 [Compound 16, 2,3-Dimethoxy-12-methyl-6-(2-(piperidin-1-yl)ethoxy)-[1,3]dioxolo[4’,5’:4,5]benzo[1,2-c]phenanthridin-13(12H)-one] | – | – | > 100 | > 111 | 22 ± 7.7 | + (+, between 20% and 50% activity) | – | – |
| – | COc1cc2c(=O)n(C)c3c4cc5c(cc4c(OCCCN4CCCCC4)cc3c2cc1OC)OCO5 [Compound 17, 2,3-Dimethoxy-12-methyl-6-(3-(piperidin-1-yl)propoxy)-[1,3]dioxolo[4’,5’:4,5]benzo[1,2-c]phenanthridin-13(12H)-one] | – | – | 1.8 ± 0.32 | > 111 | 6.6 ± 1.3 | ++ (++, between 50% and 75% activity) | – | – |
| – | COc1cc2c(=O)n(C)c3c4cc5c(cc4c(OCCN4CCN(C)CC4)cc3c2cc1OC)OCO5 [Compound 18, 2,3-Dimethoxy-12-methyl-6-(2-(4-methylpiperazin-1-yl)ethoxy)-[1,3]dioxolo[4’,5’:4,5]benzo[1,2-c]phenanthridin-13(12H)-one] | – | – | 7.7 ± 0.56 | 37 to 111 | 7 ± 1.3 | + (+, between 20% and 50% activity) | – | – |
| – | COc1cc2c(=O)n(C)c3c4cc5c(cc4c(OCCCN4CCN(C)CC4)cc3c2cc1OC)OCO5 [Compound 19, 2,3-Dimethoxy-12-methyl-6-(3-(4-methylpiperazin-1-yl)propoxy)-[1,3]dioxolo[4’,5’:4,5]benzo[1,2-c]phenanthridin-13(12H)-one] | – | – | 1.5 ± 0.21 | > 111 | 0.93 ± 0.07 | ++ (++, between 50% and 75% activity) | – | – |
| – | COc1cc2c(=O)n(C)c3c4cc5c(cc4c(OCCn4ccnc4)cc3c2cc1OC)OCO5 [Compound 20, 6-(2-(1H-Imidazol-1-yl)ethoxy)-2,3-dimethoxy-12-methyl-[1,3]dioxolo[4’,5’:4,5]benzo[1,2-c]phenanthridin-13(12H)-one] | – | – | 2.9 ± 0.45 | > 111 | 2.7 ± 0.23 | ++ (++, between 50% and 75% activity) | – | – |
| – | COc1cc2c(=O)n(C)c3c4cc5c(cc4c(OCCCn4ccnc4)cc3c2cc1OC)OCO5 [Compound 21, 6-(3-(1H-Imidazol-1-yl)propoxy)-2,3-dimethoxy-12-methyl-[1,3]dioxolo[4’,5’:4,5]benzo[1,2-c]phenanthridin-13(12H)-one] | – | – | 16 ± 3.6 | > 111 | 64 ± 3.9 | 0 | – | – |
| – | COc1cc2c(=O)n(C)c3c4cc5c(cc4c(OCCNCCN(C)C)cc3c2cc1OC)OCO5 [Compound 22, 6-(2-((2-(Dimethylamino)ethyl)amino)ethoxy)-2,3-dimethoxy-12-methyl-[1,3]dioxolo[4’,5’:4,5]benzo[1,2-c]phenanthridin-13(12H)-one] | – | – | 9.1 ± 1 | > 111 | 9.1 ± 2.4 | + (+, between 20% and 50% activity) | – | – |
| – | CCOC(=O)COc1cc2c3cc(OC)c(OC)cc3c(=O)n(C)c2c2cc3c(cc12)OCO3 [Compound 23, Ethyl 2-((2,3-dimethoxy-12-methyl-13-oxo-12,13-dihydro-[1,3]dioxolo[4’,5’:4,5]benzo[1,2-c]phenanthridin-6-yl)oxy)acetate] | – | – | > 100 | > 111 | 91 ± 5.9 | 0 | – | – |
| – | COc1cc2c(=O)n(C)c3c4cc5c(cc4cc(O)c3c2cc1OC)OCO5 [Compound 33, 5-Hydroxy-2,3-dimethoxy-12-methyl-[1,3]dioxolo[4’,5’:4,5]benzo[1,2-c]phenanthridin-13(12H)-one] | – | – | > 100 | > 111 | > 100 | – | + (+, between 20% and 50% activity) | – |
| – | COc1cc2c(=O)n(C)c3c4cc5c(cc4cc(OCCN(C)C)c3c2cc1OC)OCO5 [Compound 34, 5-(2-(Dimethylamino)ethoxy)-2,3-dimethoxy-12-methyl-[1,3]dioxolo[4’,5’:4,5]benzo[1,2-c]phenanthridin-13(12H)-one] | – | – | 11 ± 0.48 | 37 to 111 | 27 ± 1.5 | – | + (+, between 20% and 50% activity) | – |
| – | CCN(CC)CCOc1cc2cc3c(cc2c2c1c1cc(OC)c(OC)cc1c(=O)n2C)OCO3 [Compound 36, 5-(2-(Diethylamino)ethoxy)-2,3-dimethoxy-12-methyl-[1,3]dioxolo[4’,5’:4,5]benzo[1,2-c]phenanthridin-13(12H)-one] | – | – | 2.1 ± 0.23 | – | 1.6 ± 0.17 | – | 0 | > 111 |
| – | CCN(CC)CCCOc1cc2cc3c(cc2c2c1c1cc(OC)c(OC)cc1c(=O)n2C)OCO3 [Compound 37, 5-(3-(Diethylamino)propoxy)-2,3-dimethoxy-12-methyl-[1,3]dioxolo[4’,5’:4,5]benzo[1,2-c]phenanthridin-13(12H)-one] | – | – | 2.4 ± 0.11 | 15 ± 2.4 | 2 ± 0.1 | – | + (+, between 20% and 50% activity) | – |
| – | COc1cc2c(=O)n(C)c3c4cc5c(cc4cc(OCCCN4CCCC4)c3c2cc1OC)OCO5 [Compound 39, 2,3-Dimethoxy-12-methyl-5-(3-(pyrrolidin-1-yl)propoxy)-[1,3]dioxolo[4’,5’:4,5]benzo[1,2-c]phenanthridin-13(12H)-one] | – | – | 1.3 ± 0.21 | 15 ± 2.8 | 1.4 ± 0.13 | – | + (+, between 20% and 50% activity) | – |
| – | COc1cc2c(=O)n(C)c3c4cc5c(cc4cc(OCCN4CCOCC4)c3c2cc1OC)OCO5 [Compound 40, 2,3-Dimethoxy-12-methyl-5-(2-morpholinoethoxy)-[1,3]dioxolo[4’,5’:4,5]benzo[1,2-c]phenanthridin-13(12H)-one] | – | – | 15 ± 1.08 | > 111 | 18 ± 0.67 | – | ++ (++, between 50% and 75% activity) | – |
